Laboratory results reported in ChEMBL document CHEMBL1201862, “PubChem BioAssay data set” (2004).
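Method: 48-hour compound exposure of cells in 96-well plates, five concentrations, linear interpolation of endpoints. GI50: concentration for 50% inhibition of growth.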 Calls of active or inactive are those of the source. Cut-off read from the data, not from the text of the source: active = GI50 up to about 1.1 µM and inactive = higher.

Key:
Assay in all cases: DTP human tumour cell line panel, 48 h
[1] = test system: UO-31
[2] = test system: EKVX
[3] = test system: 786-0
[4] = test system: HL-60
[5] = test system: HOP-92
[6] = test system: NCI-H460
[7] = test system: OVCAR-3
[8] = test system: RPMI-8226
[9] = test system: A549
[10] = test system: SK-OV-3
[11] = test system: SNB-78
[12] = test system: CAKI-1
[13] = test system: HCT-116
[14] = test system: LXFL 529
[15] = test system: MOLT-4
[16] = test system: M14
[17] = test system: HCC 2998
[18] = test system: SF-295

| SMILES | GI50 [1] | GI50 [2] | GI50 [3] | GI50 [4] | GI50 [5] | GI50 [6] | GI50 [7] | GI50 [8] | GI50 [9] | GI50 [10] | GI50 [11] | GI50 [12] | GI50 [13] | GI50 [14] | GI50 [15] | GI50 [16] | GI50 [17] | GI50 [18] |
| --- | --- | --- | --- | --- | --- | --- | --- | --- | --- | --- | --- | --- | --- | --- | --- | --- | --- | --- |
| Brc1c2nc3ccccc3nc2n2ccc3ccccc3c12 | > 100 µM (inactive) | > 100 µM (inactive) | > 100 µM (inactive) | > 100 µM (inactive) | > 100 µM (inactive) | > 100 µM (inactive) | > 100 µM (inactive) | > 100 µM (inactive) | > 100 µM (inactive) | 2.23 µM (inactive) | > 100 µM (inactive) | > 100 µM (inactive) | > 100 µM (inactive) | > 100 µM (inactive) | > 100 µM (inactive) | > 100 µM (inactive) | > 100 µM (inactive) | – |
| CCC(O)(c1ccc(OC)cc1)C(c1ccc(OCc2ccccc2)cc1)c1ccc(OCc2ccccc2)cc1 (stereo unspecified) | > 100 µM (inactive) | > 100 µM (inactive) | > 100 µM (inactive) | > 100 µM (inactive) | > 100 µM (inactive) | > 100 µM (inactive) | > 100 µM (inactive) | > 100 µM (inactive) | > 100 µM (inactive) | > 100 µM (inactive) | > 100 µM (inactive) | > 100 µM (inactive) | > 100 µM (inactive) | > 100 µM (inactive) | > 100 µM (inactive) | > 100 µM (inactive) | > 100 µM (inactive) | > 100 µM (inactive) |
| CN(C)CCCOc1ccc(/C=C2/CCC/C(=C/c3ccc(OCCCN(C)C)cc3)C2=O)cc1 | 1.79 µM (inactive) | 3.95 µM (inactive) | 1.3 µM (inactive) | 1.97 µM (inactive) | 1.16 µM (inactive) | 2.07 µM (inactive) | 2.26 µM (inactive) | 1.26 µM (inactive) | 3.3 µM (inactive) | 1.93 µM (inactive) | 3.25 µM (inactive) | – | 1.37 µM (inactive) | 1.89 µM (inactive) | 0.877 µM (active) | 2.11 µM (inactive) | 1.7 µM (inactive) | 1.9 µM (inactive) |
| OCC(O)COc1c(Cl)cc(Cl)cc1Cl (stereo unspecified) | > 100 µM (inactive) | > 100 µM (inactive) | > 47.6 µM (inactive) | > 100 µM (inactive) | > 100 µM (inactive) | > 100 µM (inactive) | > 100 µM (inactive) | > 44.9 µM (inactive) | > 100 µM (inactive) | > 100 µM (inactive) | > 100 µM (inactive) | > 100 µM (inactive) | > 74.3 µM (inactive) | > 90.8 µM (inactive) | > 31.6 µM (inactive) | > 100 µM (inactive) | > 100 µM (inactive) | > 100 µM (inactive) |
| CCCOc1nc(N)c2cnn(C3CCCCO3)c2n1 (stereo unspecified) | > 100 µM (inactive) | > 100 µM (inactive) | > 100 µM (inactive) | > 100 µM (inactive) | > 100 µM (inactive) | > 100 µM (inactive) | > 100 µM (inactive) | > 100 µM (inactive) | > 100 µM (inactive) | > 100 µM (inactive) | > 100 µM (inactive) | > 100 µM (inactive) | > 100 µM (inactive) | > 100 µM (inactive) | > 100 µM (inactive) | > 100 µM (inactive) | > 100 µM (inactive) | > 100 µM (inactive) |
| CN(c1n[n+]2c(-c3ccccc3)csc2s1)c1n[n+]2c(-c3ccccc3)csc2s1 | > 100 µM (inactive) | > 100 µM (inactive) | > 100 µM (inactive) | 47.6 µM (inactive) | > 100 µM (inactive) | > 100 µM (inactive) | > 100 µM (inactive) | > 100 µM (inactive) | > 100 µM (inactive) | > 100 µM (inactive) | > 100 µM (inactive) | – | > 100 µM (inactive) | 87.3 µM (inactive) | > 100 µM (inactive) | > 100 µM (inactive) | > 100 µM (inactive) | > 100 µM (inactive) |
| CCCCN/C(=N\C#N)N(Cc1ccccc1)Cc1ccccc1 | 20.7 µM (inactive) | 28.2 µM (inactive) | 29.9 µM (inactive) | 18.9 µM (inactive) | 17.6 µM (inactive) | 58.5 µM (inactive) | 23.8 µM (inactive) | 16.6 µM (inactive) | 37.2 µM (inactive) | 29.7 µM (inactive) | 18.2 µM (inactive) | 29.1 µM (inactive) | 20.8 µM (inactive) | 16.9 µM (inactive) | 17.5 µM (inactive) | 20.1 µM (inactive) | 11.9 µM (inactive) | 23.4 µM (inactive) |
| CC(C)(C)[Si](C)(C)O/N=C\c1cccc(O[Si](C)(C)C(C)(C)C)c1 | 15.6 µM (inactive) | 18.5 µM (inactive) | 19.2 µM (inactive) | 18.3 µM (inactive) | 15.5 µM (inactive) | 17.7 µM (inactive) | 16.2 µM (inactive) | 17 µM (inactive) | 17.8 µM (inactive) | 21 µM (inactive) | 15.7 µM (inactive) | 24.8 µM (inactive) | 18.6 µM (inactive) | 15.7 µM (inactive) | 18.1 µM (inactive) | 16 µM (inactive) | 18.3 µM (inactive) | 18 µM (inactive) |
